From publication PMC7013346, “Bioaccessibility and Pharmacokinetics of a Commercial Saffron (Crocus sativus L.) Extract” (Evidence-based Complementary and Alternative Medicine : eCAM, 2020)
Like-named read-outs stand apart in the source and are kept apart here. Marks after values point to notes of the source that are not given here.

Assays:
[1] = Abiotic in vitro digestion (salivary, gastric, duodenal steps) of affron® tablets, HPLC-PAD/MS quantification; type: in vitro ADME; details: for Bioactive molecule content, initial sample: affron® before in vitro digestion; for Bioactive molecule content, initial sample / Bioactive molecule content, digested sample, duodenal / Bioactive molecule content, digested sample, gastric / Bioactive molecule content, digested sample, salivary: mean ± SD; for Bioactive molecule content, digested sample, duodenal: after duodenal step, 150 min, pH 7, 37°C, pancreatin and bile extract; for Bioactive molecule content, digested sample, gastric: after gastric step, 90 min, pH 2, 37°C, pepsin; for Bioactive molecule content, digested sample, salivary: after salivary step, 5 min, pH 6.9, 37°C, α-amylase; for Bioaccessibility: after whole in vitro digestion of affron® tablets, relative to initial content
Experimental: Briefly, the salivary step runs for 5 min at pH 6.9 and 37°C, under aerobic conditions with 3.9 units α-[…]. Then, the samples were transferred for 90 min to the gastric step at pH 2 and 37°C with 71.2 units pepsin/ml under anaerobic conditions. Finally, the duodenal step was set for 150 min at pH 7 and 37°C, with 9.2 mg pancreatin/ml and 55.2 mg bile extract/ml under anaerobic conditions. Samples were taken from every steps and were centrifuged at 7000 g for 40 min at 4°C. […] All samples were analysed at least in duplicate. High-performance liquid chromatography (HPLC) analysis of bioactive components from initial and digested saffron extract was performed using an Agilent Technologies 1220 Infinity series system equipped with a photodiode array detector (PAD) according to Kell et al., while the analysis of crocetin was according to Umigai et al.. […] To estimate the percentage of bioaccessibility of the main bioactive compounds of affron®, an equation was used according to Ordoudi et al.

[2] = set-up: method as in PMID 21112749; details: human, single oral dose of 22.5 mg of crocetin from G. jasminoides; cited from earlier work
[3] = Single-dose pharmacokinetics of crocetin in plasma after oral affron® tablets in healthy volunteers; type: in vivo, human; details: for Detection in plasma after affron® intake: human plasma, 0.5-3 h and 24 h after 56 or 84 mg affron®, HPLC
Experimental: A single dose, randomized, double blinded study was used to evaluate the pharmacokinetics of two different saffron doses (56 mg and 84 mg). The randomization code was generated by Random Allocation Software, sealed envelope (London, UK). Enrolled participants were then allocated to one of two groups: group 1: consumed 4 × 14 mg of affron® tablets (56 mg single dose); group: 2 : 6 × 14 mg of affron® tablets (84 mg single dose).
The subjects of the pharmacokinetics were adult male (n = 5) and female (n = 8; nonpregnant and nonlactating) healthy volunteers of 18–30 years age. All participants self-reported to be in normal physical health (BMI < 30) and passed the exclusion screening. Exclusion criteria included suffering clinically significant medical condition, such as, but not limited to, cardiovascular, neurological, psychiatric, renal, immunological, endocrine (including uncontrolled diabetes or thyroid disease), or uncontrolled haematological abnormalities. Other exclusion criteria were the use within the past 3 months of the tested compounds and/or antioxidants; no current use of prescription medications except the oral contraceptive pill in women; and known allergy to any tested compound and/or antioxidant.
All participants were advised to fast from 10 : 00 pm prior to the study until the collection of the first blood sample. Fasting was broken immediately after dosing the corresponding tablets. At time 0 h and at 4 h after dosing, balanced breakfasts (410 kcal, approximately 30% of them from fats) and lunches (625 kcal, approximately 30% from fats) were served at the center. The meals were poor in carotenoids. Subjects remained onsite for the full first 6 hours of sample collection and returned to the center again for the 24 h samples. Subjects were monitored and asked to report any possible side-effects experienced due to intake of the tablets during the whole 24 h time after the intake of the tablets.
For crocetin pharmacokinetic analysis, blood samples (3 ml collected into tubes with EDTA) were drawn prior to affron® supplementation (time 0 h), between time 30 and 180 min at every 30 min and 24 h after supplementation. The blood tubes were briefly mixed by inversion and put on ice and centrifuged (600 g, 4°C for 10 min) to separate the plasma. The EDTA-plasma of every sample was carefully removed in 3 aliquots (500 μl each) and stored at −20°C for less than 48 h before being finally transported and stored at −80°C.
Plasma samples were extracted based on the method described and validated by Mohammadpour et al.. Briefly, plasma samples were thawed to room temperature. Then, 20 μl of an internal standard solution of 13-cis-retinoic acid and 120 μl acetonitrile were added to 100 μl of sample. The samples tubes were capped and vortexed for 10 s and put on ice for 5 min. The samples were then gently rotated for 10 minutes before centrifuging at 12000 g for 10 min. The supernatant was collected and analysed by HPLC.
The efficiency of the extraction process was estimated by the measure of the residual amount of the internal standard, and 13-cis-retinoic acid was recovered after the analysis. The recovery percentage was then applied to the results to calculate the true concentration of crocetin in the samples.
The chromatogram of a sample of pure standard crocetin and its typical absorption wavelength were used to identify and confirm the crocetin peak in every analysis, as shown in Mohammadpour et al..
The crocetin concentration in biological samples was calculated using a standard linear curve at several crocetin concentration and the Shimadzu software for chromatogram analysis. All samples fell within the range of the linear standard curve (concentration (μg/ml) = (AUC + 131.56)/9475). The intra-assay precision CV was 4.8%, and the interassay variability and precision CV were 7.3%, with a blood detection limit of 0.05 μg/ml.
Pharmacokinetic parameters were derived using GraphPad Prism 7.0 (California, USA). […]

[4] = set-up: method as in PMID 23638292; details: human, single oral dose of 16 mg of saffron crocetins; cited from earlier work

Reduction of content during gastric digestion ([1]; acid-pepsin environment, gastric step)	Bioactive molecule content, initial sample [1]	Bioactive molecule content, digested sample, duodenal [1]	Bioactive molecule content, digested sample, gastric [1]	Bioactive molecule content, digested sample, salivary [1]	Bioaccessibility [1]	half-life ([3]; both sexes, plasma, crocetin after oral affron® tablets, human, dose not separated, read-out: Plasmatic half-life (converted))	Clearance ([3]; crocetin after oral affron® tablets, human, dose not separated)	Time after administration at which plasma crocetin fell to the HPLC-PAD quantification limit / ceased to be detected ([3]; human, 56 or 84 mg affron®)	Crocetin concentration in plasma 24 h after affron® intake ([3]; human, 24 h, detection limit 0.05 μg/ml)	Change of concentration over the whole in vitro digestion process vs initial composition ([1]; salivary, stomach and duodenal steps)	Detection in plasma after affron® intake ([3]; listed as picrocrocin)	Decrease of content after the digestion process ([1]; whole in vitro digestion vs initial conditions)	Detection in plasma after affron® intake ([3]; listed as safranal)	Bioactive molecule content, initial sample ([1]; listed as safranal)	Bioactive molecule content, digested sample, duodenal ([1]; listed as safranal)	Increase of content after the digestion process vs initial concentration ([1]; whole in vitro digestion)	Compound	Cmax [2]	Cmax [4]	Detection in plasma after affron® intake [3]
84%	1.66 ± 0.04^b %, dry basis	0.20 ± 0.04^a %, dry basis	0.26 ± 0.03^a %, dry basis	1.11 ± 0.43^b %, dry basis	12.05%												CC(/C=C/C=C(\C)C(=O)O[C@@H]1O[C@H](CO[C@@H]2O[C@H](CO)[C@@H](O)[C@H](O)[C@H]2O)[C@@H](O)[C@H](O)[C@H]1O)=C\C=C\C=C(C)\C=C\C=C(/C)C(=O)O[C@@H]1O[C@H](CO[C@@H]2O[C@H](CO)[C@@H](O)[C@H](O)[C@H]2O)[C@@H](O)[C@H](O)[C@H]1O (relative stereo) [t-crocin-4, trans-crocin-4]			
	0.03 ± 0.01^a %, dry basis	0.02 ± 0.01^a %, dry basis	0.03 ± 0.01^a %, dry basis	0.02 ± 0.01^a %, dry basis	66.67%	51 ± 2.4 min	2.70 ± 0.14 L/h	3 h	below the detection limit	did not increase							CC(/C=C/C=C(\C)C(=O)O)=C\C=C\C=C(C)\C=C\C=C(/C)C(=O)O [Crocetin]	280 ng/mL	350 ng/mL	
	3.21 ± 0.07^c %, dry basis	2.61 ± 0.05^b %, dry basis	2.07 ± 0.02^a %, dry basis	3.14 ± 0.11^c %, dry basis	81.31%						not detected	19%					CC1=C(C=O)C(C)(C)CC(O[C@@H]2O[C@H](CO)[C@@H](O)[C@H](O)[C@H]2O)C1 (stereo partly drawn) [Picrocrocin, 4-(β-D-glucopyranosyloxy)-2,6,6-trimethyl-1-cyclohexene-1-carboxaldehyde]			absent
	0.04 ± 0.01^a %, dry basis	0.08 ± 0.01^b %, dry basis	0.21 ± 0.01^c %, dry basis	0.03 ± 0.00^a %, dry basis	200.00%								not detected	0.04 %, dry basis	0.08 %, dry basis	about 2 folds	CC1=C(C=O)C(C)(C)CC=C1 [Safranal]			not detected or appeared below the detection limit
	0.13 ± 0.01^b,c %, dry basis	0.09 ± 0.01^a %, dry basis	0.12 ± 0.01^b %, dry basis	0.14 ± 0.01^c %, dry basis	69.23%												Kaempferol diglucoside			
